Measured values from US12622975B2, “Peptide-conjugated prodrugs” (priority 2019, dated 2026).
≈ marks a conversion by molar mass, not a printed value. Where “and” joins values, the source holds several entries; their conditions need not be identical. Equal entries are not always repeated. Entries after “also recorded” stand apart in the source; their conditions may differ. Where two headings read alike, the source gives them in different places. Numbered stars: 1 amine (or outer) side, 2 acyl side, 3 side chain; on linkers, the order of the positions; unused ones are H or OH. Square brackets hold non-standard residues; d marks the D form. Peptide text beside a SMILES is read from it. * marks the point of attachment. X1 = O=C(CCC(=O)[*:2])OCC(N[*:1])C(O)c1ccc([N+](=O)[O-])cc1; Dichloroacetyl = O=C(C(Cl)Cl)*

Legend:
[1] = system: wild type E. coli strain (K-12); test: Bacteria culture and inhibitory activity assay (MIC); assay type: cell-based; details: for MIC: Escherichia coli
Method: Bacteria culture and inhibitory activity assay: Single esterase (BioH, YjfP, FrsA, YbfF, YfbB, YqiA, YeiG, or and YpfH) deletion mutants were purchased from Dharmacon Horizon Discovery (Cambridge, United Kingdom). […] Compounds were added at different concentrations.
Compounds were added at different concentrations.

HS-5 cells = test: Cell viability assay (MTT), HS-5; assay type: cell-based, human; details: 24 hours; for cytotoxicity / cell viability of HS-5 cells: 20 μM; for cytotoxicity of control compounds against HS-5 cells: around MIC values (0.5 μM)
E. coli (K-12) lysate = test: Hydrolysis assay with E. coli lysate; assay type: in vitro ADME; details: 24 hours after addition of E. coli lysate
Method: (§1) Hydrolysis assay: Wild-type E. coli strains (K12) were harvested by centrifugation and the cell pellets were lysed using a sonic device. After centrifugation, the supernatant was collected and the proteinase inhibitor was added in the E. coli lysate. The concentration of E. coli lysate was normalized by the fluorescence intensity of 5-carboxyfluorescein diacetate (CFDA). Briefly, different concentrations of CES (4 U/mL, 2 U/mL, 1 U/mL, 0.5 U/mL, 0.25 U/mL, 0.125 U/mL, 0.0625 U/mL, 0.03125 U/mL, 0.015625 U/mL and 0 U/mL) and different amount of E. coli lysates were prepared in PBS buffer. Followed by, 25 μM of CFDA was added in and incubated at room temperature for 1 hour. Then the fluorescence was tested to draw a fluorescence-concentration dependent curve for figuring out the concentration of E. coli lysates. Solutions of CLsuGG (200 μM) were prepared in pH 7.4 PBS buffer. CES and E. coli lysate (0.1 U/mL) were added and incubated with above solutions at 37° C. for 24 hours. At different time points, the solution was taken out, extracted with an equal volume of butanol, concentrated to dryness, and resuspended with butanol for HPLC analysis. HPLC was performed with Agilent 1100 Series Liquid Chromatograph equipped with an XTerra C18 reverse phase column and Variable Wavelength Detector. The hydrolyzed mixture resuspended in 1 mL of butanol was injected to HPLC mobile phase (0.1% trifluoroacetic acid, the starting ratio: 10% acetonitrile and 90% water). The system was run at a flow rate of 10 mL/min.
as §1, with “analysis.” for “analysis. HPLC was performed with Agilent 1100 Series Liquid Chromatograph equipped with an XTerra C18 reverse phase column and Variable Wavelength Detector. The hydrolyzed mixture resuspended in 1 mL of butanol was injected to HPLC mobile phase (0.1% trifluoroacetic acid, the starting ratio: 10% acetonitrile and 90% water). The system was run at a flow rate of 10 mL/min.”

carboxylesterase (CES) = test: Hydrolysis assay with exogenous carboxylesterase; assay type: in vitro ADME, porcine; details: CES 0.1 U/mL
From the text: Experimental materials and instruments. All the solvents and chemical reagents were used directly as received from the commercial sources without further purification unless otherwise stated. Carboxylesterase (CES) from porcine liver was purchased from Sigma-Aldrich (lyophilized powder, >15 units/mg solid; Unit definition: One unit will hydrolyze 1.0 μmole of ethyl butyrate to butyric acid and ethanol per min at pH 8.0 at 25). CLsuGG, CLsuG, CLsuGGG were purified with Agilent 1100 Series Liquid Chromatography system, equipped with an XTerra C18 RP column and Variable Wavelength detector.
as §1, with “Briefly, different concentrations of CES (4 U/mL, 2 U/mL, 1 U/mL, 0.5 U/mL, 0.25 U/mL, 0.125 U/mL, 0.0625 U/mL, 0.03125 U/mL, 0.015625 U/mL and 0 U/mL) and different amount of E. coli lysates were prepared in PBS buffer. Followed by, 25 μM of CFDA was added in and incubated at room temperature for 1 hour.” left out, “CES and E. coli lysate (0.1 U/mL) were added and incubated with above solutions at 37° C. for 24 hours.” left out

[2] = Stability in human serum (LC-MS); assay type: in vitro ADME; details: 200 μM, 37° C.; for Compounds remaining (%) 0 h / Compounds remaining (%) 2 h / Compounds remaining (%) 24 h: human serum
[3] = wild type E. coli (K-12), read-out: MIC
[4] = wild type E. coli (K-12), read-out: MIC (μg/mL)

O=C(N[C@H](CO)[C@H](O)c1ccc([N+](=O)[O-])cc1)C(Cl)Cl [CL, chloramphenicol, reference compound]
MIC [1, 3]: 20 µM | MIC [1, 4]: 6.5 µg/mL | cytotoxicity / cell viability of HS-5 cells (HS-5 cells): reduced the viability

O=C(O)CCC(=O)OC[C@@H](NC(=O)C(Cl)Cl)[C@H](O)c1ccc([N+](=O)[O-])cc1 [CLsu, chloramphenicol succinate, reference compound]
MIC ([1]; read-out: MIC value before addition of exogenous CES): 90 µM | MIC ([1]; FIG. 3B, with exogenous carboxylesterase (CES), read-out: MIC value after addition of exogenous CES): 49 µM | MIC [1, 3]: > 200 µM | MIC [1, 4]: > 84.6 µg/mL | MIC (μM) ([1]; wild type E. coli (K-12)): >200 µM | MIC (μg/mL) ([1]; wild type E. coli (K-12)): >84.6 µg/mL | fraction hydrolyzed (E. coli (K-12) lysate): less than 20% | hydrolysis with addition of CES (carboxylesterase (CES)): hardly undergoes hydrolysis | conversion in human serum ([2]; after 24 hours): less than 15% | Compounds remaining (%) 0 h [2]: 100% | Compounds remaining (%) 2 h [2]: 96.2% | Compounds remaining (%) 24 h [2]: 87.0% | cytotoxicity / cell viability of HS-5 cells (HS-5 cells): largely innocuous; also recorded: lower cytotoxicity than CL

O=C(O)CNC(=O)CCC(=O)OCC(NC(=O)C(Cl)Cl)C(O)c1ccc([N+](=O)[O-])cc1 (stereo not drawn) [CLsuG]
MIC (μM) ([1]; wild type E. coli (K-12)): >200 µM | MIC (μg/mL) ([1]; wild type E. coli (K-12)): > 95.8 µg/mL and 95.8 µg/mL

CC(C)CC(NC(=O)CNC(=O)CCC(=O)OCC(NC(=O)C(Cl)Cl)C(O)c1ccc([N+](=O)[O-])cc1)C(=O)O (stereo not drawn) [Compound 1a]
MIC (μM) ([1]; wild type E. coli (K-12)): 20 µM (≈ 11.9 µg/mL)

CC(NC(=O)CNC(=O)CCC(=O)OCC(NC(=O)C(Cl)Cl)C(O)c1ccc([N+](=O)[O-])cc1)C(=O)O (stereo not drawn) [Compound 1b]
MIC (μM) ([1]; wild type E. coli (K-12)): 20 µM (≈ 11 µg/mL)

CNC(=O)CNC(=O)CNC(=O)CCC(=O)OCC(NC(=O)C(Cl)Cl)C(O)c1ccc([N+](=O)[O-])cc1 (stereo not drawn) [Compound 1e]
MIC (μM) ([1]; wild type E. coli (K-12)): 20 µM (≈ 11 µg/mL)

O=C(O)CNC(=O)CNC(=O)CNC(=O)CNC(=O)CCC(=O)OCC(NC(=O)C(Cl)Cl)C(O)c1ccc([N+](=O)[O-])cc1 (stereo not drawn) [Compound 1f] (Dichloroacetyl-[X1]GGGG-OH)
MIC (μM) ([1]; wild type E. coli (K-12)): 20 µM (≈ 13 µg/mL)

CC(NC(=O)C(C)NC(=O)CCC(=O)OCC(NC(=O)C(Cl)Cl)C(O)c1ccc([N+](=O)[O-])cc1)C(=O)O (stereo not drawn) [Compound 1g]
MIC (μM) ([1]; wild type E. coli (K-12)): 80 µM (≈ 45.2 µg/mL)

CC(NC(=O)C(C)NC(=O)CCC(=O)OCC(NC(=O)C(Cl)Cl)C(O)c1ccc([N+](=O)[O-])cc1)C(=O)O (stereo not drawn) [Compound 1h]
MIC (μM) ([1]; wild type E. coli (K-12)): 100 µM (≈ 56.5 µg/mL)

CC(NC(=O)C(C)NC(=O)C(C)NC(=O)CCC(=O)OCC(NC(=O)C(Cl)Cl)C(O)c1ccc([N+](=O)[O-])cc1)C(=O)O (stereo not drawn) [Compound 1i]
MIC (μM) ([1]; wild type E. coli (K-12)): 80 µM (≈ 50.9 µg/mL)

CC(NC(=O)C(C)NC(=O)C(C)NC(=O)CCC(=O)OCC(NC(=O)C(Cl)Cl)C(O)c1ccc([N+](=O)[O-])cc1)C(=O)O (stereo not drawn) [Compound 1j]
MIC (μM) ([1]; wild type E. coli (K-12)): 100 µM (≈ 63.6 µg/mL)

O=C(CCC(=O)OCC(NC(=O)C(Cl)Cl)C(O)c1ccc([N+](=O)[O-])cc1)NCC(=O)NCC(=O)NC(Cc1ccccc1)C(=O)O (stereo not drawn) [Compound 1k]
MIC (μM) ([1]; wild type E. coli (K-12)): 20 µM (≈ 13.7 µg/mL) | Compounds remaining (%) 0 h [2]: 100% | Compounds remaining (%) 2 h [2]: 0% | Compounds remaining (%) 24 h [2]: 0%

O=C(O)CNC(=O)C(Cc1ccccc1)NC(=O)CNC(=O)CCC(=O)OCC(NC(=O)C(Cl)Cl)C(O)c1ccc([N+](=O)[O-])cc1 (stereo not drawn) [Compound 1m]
MIC (μM) ([1]; wild type E. coli (K-12)): 20 µM (≈ 13.7 µg/mL)

O=C(O)CNC(=O)CNC(=O)C(Cc1ccccc1)NC(=O)CCC(=O)OCC(NC(=O)C(Cl)Cl)C(O)c1ccc([N+](=O)[O-])cc1 (stereo not drawn) [Compound 1n]
MIC (μM) ([1]; wild type E. coli (K-12)): 80 µM (≈ 54.8 µg/mL)

O=C(CCC(=O)OCC(NC(=O)C(Cl)Cl)C(O)c1ccc([N+](=O)[O-])cc1)NCC(=O)NCC(=O)NC(Cc1ccccc1)C(=O)NC(Cc1ccccc1)C(=O)O (stereo not drawn) [Compound 1o] (Dichloroacetyl-[X1]GGFF-OH; configuration not given here)
MIC (μM) ([1]; wild type E. coli (K-12)): 20 µM (≈ 16.6 µg/mL) | Compounds remaining (%) 0 h [2]: 100% | Compounds remaining (%) 2 h [2]: 7.2% | Compounds remaining (%) 24 h [2]: 0%

O=C(O)CNC(=O)CNC(=O)CNC(=O)CNC(=O)CNC(=O)CCC(=O)OCC(NC(=O)C(Cl)Cl)C(O)c1ccc([N+](=O)[O-])cc1 (stereo not drawn) [Compound 1q] (Dichloroacetyl-[X1]GGGGG-OH)
MIC (μM) ([1]; wild type E. coli (K-12)): 40 µM (≈ 28.3 µg/mL)

N=C(N)NCCCC(NC(=O)C(CCCNC(=N)N)NC(=O)CCC(=O)OCC(NC(=O)C(Cl)Cl)C(O)c1ccc([N+](=O)[O-])cc1)C(=O)O (stereo not drawn) [Compound 2a]
MIC (μM) ([1]; wild type E. coli (K-12)): 200 µM (≈ 147 µg/mL)

N=C(N)NCCCC(NC(=O)C(CCCNC(=N)N)NC(=O)C(Cc1ccccc1)NC(=O)C(Cc1ccccc1)NC(=O)CCC(=O)OCC(NC(=O)C(Cl)Cl)C(O)c1ccc([N+](=O)[O-])cc1)C(=O)O (stereo not drawn) [Compound 2d] (Dichloroacetyl-[X1]FFRR-OH; configuration not given here)
MIC (μM) ([1]; wild type E. coli (K-12)): 200 µM (≈ 206 µg/mL)

NCCCCC(NC(=O)C(CCCCN)NC(=O)C(Cc1ccccc1)NC(=O)C(Cc1ccccc1)NC(=O)CCC(=O)OCC(NC(=O)C(Cl)Cl)C(O)c1ccc([N+](=O)[O-])cc1)C(=O)O (stereo not drawn) [Compound 2e] (Dichloroacetyl-[X1]FFKK-OH; configuration not given here)
MIC (μM) ([1]; wild type E. coli (K-12)): 200 µM (≈ 195 µg/mL)

NCCCCC(NC(=O)CNC(=O)CCC(=O)OCC(NC(=O)C(Cl)Cl)C(O)c1ccc([N+](=O)[O-])cc1)C(=O)O (stereo not drawn) [Compound 2f]
MIC (μM) ([1]; wild type E. coli (K-12)): 20 µM (≈ 12.2 µg/mL) | Compounds remaining (%) 0 h [2]: 100% | Compounds remaining (%) 2 h [2]: 0% | Compounds remaining (%) 24 h [2]: 0%

O=C(O)CCC(NC(=O)C(CCC(=O)O)NC(=O)CCC(=O)OCC(NC(=O)C(Cl)Cl)C(O)c1ccc([N+](=O)[O-])cc1)C(=O)O (stereo not drawn) [Compound 2g]
MIC (μM) ([1]; wild type E. coli (K-12)): >200 µM

O=C(O)CC(NC(=O)C(CC(=O)O)NC(=O)CCC(=O)OCC(NC(=O)C(Cl)Cl)C(O)c1ccc([N+](=O)[O-])cc1)C(=O)O (stereo not drawn) [Compound 2h]
MIC (μM) ([1]; wild type E. coli (K-12)): >200 µM

O=C(O)CC(NC(=O)C(CC(=O)O)NC(=O)CCC(=O)OCC(NC(=O)C(Cl)Cl)C(O)c1ccc([N+](=O)[O-])cc1)C(=O)O (stereo not drawn) [Compound 2i]
MIC (μM) ([1]; wild type E. coli (K-12)): 200 µM (≈ 131 µg/mL)

O=C(O)CC(NC(=O)CNC(=O)CCC(=O)OCC(NC(=O)C(Cl)Cl)C(O)c1ccc([N+](=O)[O-])cc1)C(=O)O (stereo not drawn) [Compound 2j]
MIC (μM) ([1]; wild type E. coli (K-12)): 20 µM (≈ 11.9 µg/mL)

O=C(CCC(=O)OCC(NC(=O)C(Cl)Cl)C(O)c1ccc([N+](=O)[O-])cc1)NC(Cc1ccccc1)C(=O)NC(Cc1ccccc1)C(=O)O (stereo not drawn) [Compound 3a]
MIC (μM) ([1]; wild type E. coli (K-12)): 100 µM (≈ 71.8 µg/mL)

O=C(O)c1cn(C2CC2)c2cc(N3CCNCC3)c(F)cc2c1=O [ciprofloxacin]
cytotoxicity of control compounds against HS-5 cells (HS-5 cells): relatively low cytotoxicity

CC[C@H]1OC(=O)[C@H](C)C(=O)[C@H](C)[C@@H](O[C@@H]2O[C@H](C)C[C@H](N(C)C)[C@H]2O)[C@](C)(OC)C[C@@H](C)C(=O)[C@H](C)[C@H]2N(CCCCn3cnc(-c4cccnc4)c3)C(=O)O[C@]12C [telithromycin]
cytotoxicity of control compounds against HS-5 cells (HS-5 cells): relatively low cytotoxicity
